# Test results reported in patent US20240342190A1, “METHODS FOR REDUCING ISCHEMIA-REPERFUSION INJURIES” (BioMimetix JV, LLC, priority 2023, published 2024).
# Key:
# Format in all cases: in vivo, rat
# [1] = test system: aged female Fisher 344 rats subjected to 90 min of MCAO; test: Experiment 5: stroke outcome in aged female rats; settings: for Neurologic score: median±IQR, p<0.001
# Protocol: (§1) The rats were fasted overnight for glucose control. On the surgery day, they were anesthetized with 5% isoflurane in 30% oxygen balanced with nitrogen. The trachea was orally intubated, and both lungs were mechanically ventilated to maintain normocapnia. Isoflurane was reduced to 1.5% during the surgical procedure. A 22-gauge needle thermistor was percutaneously inserted beneath the temporalis muscle adjacent to the skull. The pericranial temperature was maintained at 37.0° C.±0.2° C. by a surface heat lamp. The tail artery was cannulated with PE 50 tubing (BD Intramedic™ Polyethylene Tubing, Sparks, MD, USA), and arterial blood pressure was continuously monitored. 50 IU of heparin was given via arterial line to prevent intra-arterial thrombosis. Arterial blood samples were collected pre, during, and after ischemia for blood gas, glucose, and hematocrit measurements.
# (§2) Ischemic stroke was induced by transiently occluding the middle cerebral artery (MCAO) as previously reported.^23,24 Briefly, a midline cervical incision was made and the right common carotid artery […] was identified. The external and internal carotid arteries were dissected. […] The internal carotid artery (ICA) was dissected distally until the origin of the pterygopalatine artery was visualized. After surgical preparation, a 10 min interval was allowed for physiologic stabilization. […] The common carotid artery was re-opened, and a timer was started as the onset of cerebral ischemia.
# (§3) After 90 min of MCAO, the filament was removed and a PE-10 tube (BD Intramedic™ Polyethylene Tubing, Sparks, MD, USA) was inserted into the ICA beyond the origin of the pterygopalatine artery. The vehicle or BMX-001 (30-50 μg/kg) solution (1 μl/g for both solutions, 250 μl for the 250 g rat) was slowly infused for 5 minutes via syringe pump. At the completion of intra-carotid infusion, the PE tube was removed and the ECA stump was permanently ligated. The tail artery catheter was removed and both the neck incision and tail incision were infiltrated with bupivacaine and closed with suture. Isoflurane was discontinued. Rats were disconnected from the ventilator when they attained spontaneous respiration and kept in a recovery cage. The tracheas were extubated after recovery of the righting reflex. They were in an O2 enriched environment (30% O2) for 1 h and then returned to the home cage.
# (§4) Post-stroke neurologic deficits were assessed at day 7 and 28 using a standardized neurological scoring system.^27,28 General status, simple motor deficit, complex motor deficit, and sensory deficit were evaluated, including the ability of walking on a beam and climbing on the vertical screen. The total score each animal received was the sum of all four individual scores (0-48, 0=normal and 48=the worst score).
# (§5) Upon the completion of functional tests, the animals were weighed, anesthetized with isoflurane, and decapitated. The brains were harvested, frozen at −20° C. in 2-methylbutane on dry ice, and stored in a −80° C. freezer. Serial quadruplicate 20-μm-thick coronal sections were cut using a Leica cryostat and mounted on the slides at 720-μm interval over the rostral-caudal extent of the brain. The sections were dried on a slide heater at 36° C., and stained with hematoxylin and eosin. A section from each […] interval was digitized with a video camera controlled by an image analyzer (MCID, the MicroComputer Imaging Device, Imaging Research Inc, St. Catharines, Ontario, Canada). […] With the observer blinded to the experimental condition, the following regions of interest (ROI) were outlined individually using an operator-controlled cursor, including non-infarcted ipsilateral cerebral cortex, non-infarcted ipsilateral subcortex, contralateral cerebral cortex, and contralateral subcortex. The area in each ROI (mm^2) was determined by automated counting of calibrated pixels and the volume (mm^3) was computed by the known interval between sections over the rostral-caudal extent of brain. […]
# [2] = Experiment 6: BMX-001 plasma and brain concentration measurement (LC/MS/MS)
# Protocol: Young male Wistar rats (n=4) were subjected to 90 min of MCAO and 30 μg/kg of BMX-001 intra-carotid infusion following reperfusion. Blood and brain samples were harvested at 30 min after BMX-001 infusion, stored in −80° C. freezer, and measured using Liquid chromatography-tandem-mass spectroscopy (LC/MS/MS) analysis. Brain tissue was homogenized in water (1 g in 2 mL water). Then, […] or […], two Zr-silica beads (2.5 mm), […] 1% HFBA (heptafluorobutyric acid) in 30% acetonitrile/water+BMX-001-d8 (int. std.,50 nM), and […] of chloroform/isopropanol (4/1, v/v) was added to polypropylene tube and vigorously agitated in FastPrep (Thermo Savant) at speed 6 for 45 s, followed by centrifugation at 16,000 rcf for 5 min at room temperature. The […] aliquot of organic (lower) layer was transferred to polypropylene tube and evaporated to dryness by gentle stream of nitrogen. The dry residue was reconstituted into […] of mobile phase A, and […] injected into LC/MS/MS system. The LC/MS/MS analysis was performed on Agilent 1200 HPLC-AB/SCIEX 5500 QTrap MS/MS instrument. LC column: Phenomenex Kinetex 4×3 mm, C18 guard cartridge at 35° C.; mobile phase A: 0.05% HFBA, 10% acetonitrile, water; mobile phase B: 0.05% HFBA in acetonitrile; elution gradient: 0-1 min 0-70% B, 1-2 min 70% B, 2-2.1 min 70-100% B, 2.1-2.6 min 100% B, 2.6-2.7 min 100-0% B; run time: 4 min. MS/MS transitions: BMX-001 (3×HFBA) at m/z 857.3/599.7. Calibration samples in 2.4 (LOQ)—300 nM brain tissue or 0.47 (LOQ)—30 nM plasma concentration range were prepared by adding known amounts of BMX-001 into blank brain homogenate or plasma, and analyzed alongside study samples as a single analytical batch.
# [3] = test system: young male Wistar rats subjected to 90 min of MCAO (ischemic stroke); test: Experiment 3: duration of BMX-001 treatment and long-term stroke outcome in young male rats; settings: for MAP: 10 minutes post-stroke; for Neurologic score: median±IQR; for Body weight: p=0.37; for Total infarct: measured at 28 days, p=0.46
# Protocol: as §1, §2, §3, §4, §5
# [4] = 30 μg/kg intracarotid after 90 min MCAO, 30 min after infusion, n=4
# [5] = printed 'on day 28 in BMX-001 group'
smiles,measurement,setting,value
"CCCCOCC[n+]1ccccc1C1=C2C=CC3=[N+]2[Mn]24[n]5c1ccc5C(c1cccc[n+]1CCOCCCC)=C1C=CC(=[N+]12)C(c1cccc[n+]1CCOCCCC)=c1ccc([n]14)=C3c1cccc[n+]1CCOCCCC [BMX-001, MnTnBuOE-2-PyP^5+]",MAP,"[1]; 10 minutes post-stroke, aged female Fisher 344 rats",90 ± 13 mmHg
same,"Infarct volume (FIG. 5, Panel C), in words",[1]; 28 days after stroke,significantly reduced infarct volume
same,Reduction of infarct volume,"[1]; 28 days after stroke, vs vehicle",60%
same,Subcortex infarct volume,"[1]; 28 days, p=0.0010",10±12 mm^3
same,Total infarct volume,"[1]; 28 days, p=0.0037 vs vehicle",31±41 mm^3
same,Cortex infarct volume,"[1]; 28 days, p=0.0122 vs vehicle",21±32 mm^3
same,Neurologic score,[1]; day 7,4±4.75
same,"Neurologic functions (FIG. 5, Panel B), in words",[1]; day 7 and 28 post-stroke,significantly attenuated neurologic deficits
same,Body weight,[1]; day 7 post-stroke,233±19 grams
same,Body weight loss from the baseline body weight,[1]; day 7 post-stroke,8 grams
same,Neurologic score,[1]; day 28,4±4.75
same,Rats died at post-stroke day 2 due to large infarct,[1]; of n=17,one
same,BMX-001 content in contralateral brain hemisphere,[2]; [4],0.5 ± 0.3 nM
same,BMX-001 content in ipsilateral brain hemisphere,[2]; [4],7.4 ± 8.6 nM
same,BMX-001 content in plasma,[2]; [4],11.3 ± 1.2 nM
same,BMX-001 concentration at the site of brain injury relative to the contralateral hemisphere,[2]; direct intracarotid infusion,15 fold
same,MAP,[3]; group BMX-001 for 7 days,67 ± 5 mmHg
same,MAP,[3]; group BMX-001 for 28 days,71 ± 6 mmHg
same,"Neurological deficits (FIG. 3, Panel B), in words",[3]; both day 7 and day 28 post-stroke,significantly improved
same,Neurologic score,"[3]; day 7 post-stroke, 7 days of BMX-001 group",10±8
same,Neurologic score,"[3]; day 7 post-stroke, 28 days of BMX-001 group",11±8
same,Body weight,"[3]; day 7 post-stroke, printed 'on day 7 in BMX-001 group'",276±46 grams
same,"Infarct volume (FIG. 3, Panel C), in words",[3]; day 28,no intra-group difference
same,Neurologic score,"[3]; day 28 post-stroke, 7 days of BMX-001",6±5
same,Neurologic score,"[3]; day 28 post-stroke, 28 days of BMX-001",6±4
same,Total infarct,[3]; 7 days of BMX-001 group,131±66 mm^3
same,Total infarct,[3]; [5],112±64 mm^3
same,Body weight,[3]; [5],280±33 grams
